Data taken from PubChem BioAssay AID624145 (Sanford-Burnham Center for Chemical Genomics, 2012).
Activity calls are given as the source filed them.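 How the source made its calls: active means EC50 at or below 20 µM; inactive means the rest.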

Tested on: hiPSC single-cell survival, DAPI nuclei count imaging
Assay: enhancers of single-cell hiPSC survival, dose response, imaging, fluorescence imaging, uHTS hits (AID 624145)

Row | Structure (SMILES) | EC50
1 | CN1C2CCC1/C(=C/c1ccccn1)C(=O)/C2=C\c1ccccn1 | > 80 µM (inactive)
2 | CCn1c(Cl)c(C=O)s/c1=N\S(=O)(=O)c1ccccc1 | > 80 µM (inactive)
3 | CCN1C/C(=C/c2cccc([N+](=O)[O-])c2)C(=O)/C(=C/c2cccc([N+](=O)[O-])c2)C1 | > 80 µM (inactive)
4 | CNc1cc(Cl)c2nonc2c1[N+](=O)[O-] | > 80 µM (inactive)
5 | O=C(C(O)c1ccc(Br)cc1)N1CCC(Nc2ccc3[nH]ncc3c2)CC1 (stereo not drawn) | 5.88 µM
6 | COc1ccc2c(c1)c(=O)c(C(=O)c1ccc(Cl)cc1)cn2CC(=O)Nc1ccc(F)cc1 | 18.6 µM
7 | NC(=O)c1ccc(NC(=O)CCC(=O)c2cccs2)cc1 | 7.14 µM
8 | CC1C/C(=C/c2ccncc2)C(=O)/C(=C/c2ccncc2)C1 (stereo not drawn) | > 80 µM (inactive)
9 | CN(Cc1ccc(C(F)(F)F)cc1)C(=O)[C@H]1O[C@@H](n2cnc3c(N)ncnc32)[C@H](O)[C@@H]1O | 20.8 µM (inactive)
10 | CCOCCCNC(=O)/C(C#N)=C/c1ccc([N+](=O)[O-])o1 | > 80 µM (inactive)
11 | c1ccc(CN2CCN(c3nc(NCc4ccco4)c4ccccc4n3)CC2)cc1 | 5.81 µM
12 | O=C(Nc1ccncc1)c1cc(S(=O)(=O)N2CCOCC2)ccc1Cl | 13.8 µM
13 | O=C(Nc1nc(-c2ccncc2)cs1)C1COc2ccccc2O1 (stereo not drawn) | 1.86 µM
14 | CC(Oc1ccccc1)C(=O)Nc1nc(-c2ccncc2)cs1 (stereo not drawn) | 42.9 µM (inactive)
15 | CN(C(=O)COC(=O)c1nc(Cl)c(Cl)c(Cl)c1Cl)C1CCS(=O)(=O)C1 (stereo not drawn) | > 80 µM (inactive)
16 | CCC(C(=O)Nc1ccc2[nH]ncc2c1)c1ccccc1 (stereo not drawn) | 6.49 µM
17 | COc1ccccc1Sc1nc(-c2ccccn2)ncc1OC | 45.7 µM (inactive)
18 | O=C(Nc1ccncc1)c1cc(S(=O)(=O)N2CCCC2)ccc1Cl | 13.6 µM
19 | Cc1nnc2n(C3CCCCC3)c(=O)c3c4c(sc3n12)COC(C)(C)C4 | > 80 µM (inactive)
20 | CC1(C)Cc2c(C#N)c(SCC(=O)c3ccccc3)nc(N3CCOCC3)c2CS1 | 39.3 µM (inactive)
21 | C=C(C)[C@@]12OC3(c4ccccc4)O[C@@H]1C1[C@@H]4O[C@]4(CO)[C@@H](O)[C@]4(O)C(=O)C(C)=C[C@H]4[C@@]1(O3)[C@H](C)[C@H]2OC(=O)/C=C/C=C/c1ccccc1 (stereo partly drawn) | > 80 µM (inactive)
22 | CC(OC(=O)c1ccc(S(=O)(=O)N2CCCCC2)cc1)C(=O)Nc1ccc(C(N)=O)cc1 (stereo not drawn) | 10.5 µM
23 | CCCSc1nc(N2CCOCC2)c2c(c1C#N)CC(C)(C)SC2 | > 80 µM (inactive)
24 | O=C(Cc1ccc(Br)cc1)Nc1ccc2[nH]ncc2c1 | 19.1 µM
25 | CN1Cc2cnnn2-c2ccccc2C1C#N (stereo not drawn) | 26.5 µM (inactive)
26 | CCCCn1c(=O)[nH]c(=O)c2c1nc(Cn1ncc(Cl)c(Cl)c1=O)n2CCC | > 80 µM (inactive)
27 | CC(OC(=O)c1ccc2c(=O)n3c(nc2c1)CCC3)C(=O)Nc1ccc(C(N)=O)cc1 (stereo not drawn) | 28.4 µM (inactive)

Row | Structure (SMILES) | EC50
28 | N#C/C(=C/c1cccc([N+](=O)[O-])c1)c1nnc2n1CCCCC2 | > 80 µM (inactive)
29 | CCCNC(=O)COC(=O)c1ccccc1C(=O)c1ccc(Cl)c([N+](=O)[O-])c1 | > 80 µM (inactive)
30 | CC(C)(C)NC(=O)Cn1nnc(-c2ccccc2NC(=O)c2cnccn2)n1 | > 80 µM (inactive)
31 | O=C(NCc1ccccc1)c1ccc(-c2cn[nH]c2)c2ccoc12 | 1.1 µM
32 | O=c1c(Cl)c(Cl)cnn1Cc1nnc(-c2ccccc2Br)o1 | > 80 µM (inactive)
33 | C=C1[C@@H](C)[C@H]2[C@H](Cc3ccccc3)NC(=O)[C@]23OC(=O)/C=C/[C@H](O)CCC[C@@H](C)C/C=C/[C@H]3[C@@H]1O | 12.5 µM
34 | CN1C/C(=C/c2cccnc2)C(=O)/C(=C/c2cccnc2)C1 | > 80 µM (inactive)
35 | CCCCCCC[C@@H](C/C=C/CCC(=O)N(C)C/C(=C/Cl)C/C(=C\C(=O)N1CC(OC)=CC1=O)OC)OC | 0.525 µM
36 | O=S(=O)(c1cccc2cnccc12)N1CCNCC1 | 2.05 µM
37 | C=C1C(=O)O[C@@H]2C[C@@H](C)[C@@H]3C=CC(=O)[C@@]3(C)[C@@H](O)[C@H]12 | > 80 µM (inactive)
38 | Cc1c(C(=O)OCC(=O)Nc2ccc(C(N)=O)cc2)cccc1[N+](=O)[O-] | > 80 µM (inactive)
39 | C=C1C(=O)OC2CC(C)C3C=CC(=O)C3(C)C(O)C12 (stereo not drawn) | > 80 µM (inactive)
40 | C=C1C(C)C2C(Cc3ccccc3)NC(=O)C23OC(=O)/C=C/C(O)CCCC(C)C/C=C/C3C1O (stereo not drawn) | 12.5 µM
41 | O=C(Nc1ccncc1)c1c(F)c(F)c(F)c(F)c1F | 5.46 µM
42 | O=C1/C(=C/c2ccncc2)CCC/C1=C\c1ccncc1 | > 80 µM (inactive)
43 | COCCNC(=O)c1ccc(-c2cn[nH]c2)c2ccoc12 | 19.2 µM
44 | CC(OC(=O)c1cccc(S(=O)(=O)N2CCN(C)CC2)c1)C(=O)Nc1ccc(C(N)=O)cc1 (stereo not drawn) | 35.6 µM (inactive)
45 | O=C(NCC1CC1)c1ccc(-c2cn[nH]c2)c2ccoc12 | 14.2 µM
46 | O=C(Nc1ccncc1)c1ccccc1F | 28.2 µM (inactive)
47 | CCN1C/C(=C\c2cccc([N+](=O)[O-])c2)C(=O)/C(=C/c2cccc([N+](=O)[O-])c2)C1 | > 80 µM (inactive)
48 | COC(=O)CCSc1cc([N+](=O)[O-])cc2c1c(C1OCCS1)nn2-c1ccccc1 (stereo not drawn) | > 80 µM (inactive)
49 | O=C(Nc1ccncc1)c1ccccc1[N+](=O)[O-] | 33.4 µM (inactive)
50 | CC1(C)Cc2c(C#N)c(NCC3CCCO3)nc(-c3ccco3)c2CO1 (stereo not drawn) | 42.8 µM (inactive)
51 | O=C(Nc1ccncc1)c1c(F)cccc1F | 13.6 µM
52 | O=C(COc1ccccc1)Nc1nc(-c2ccncc2)cs1 | 29.3 µM (inactive)
53 | C=C1C(C)C2C(Cc3ccccc3)NC(=O)C23C(OC(C)=O)C=CC(C)(O)CC(C)CC=CC3C1O (stereo not drawn) | > 80 µM (inactive)
